# Values quoted from earlier work as cited in publication PMC5131915, “Platinum(II) Iodido Complexes of 7-Azaindoles with Significant Antiproliferative Effects: An Old Story Revisited with Unexpected Outcomes” (PLoS ONE, 2016).
# Tests used:
# Settings in all cases: cited from earlier work
# [1] = tested on: A2780, T-47D human breast carcinoma and WiDr human colon carcinoma cell lines; parameters: method as in PMID 24900222
# [2] = tested on: HT29 colon carcinoma cells
# [3] = tested on: HCT116 colon carcinoma cells
# [4] = tested on: HeLa cells; parameters: method as in PMID 22225466
smiles,measurement,setting,value
CC(C)N.CC(C)N.[I][Pt][I] [cis-[PtI2(ipam)2]],times more potent than cisplatin,[1],≤ 11 times
O=C1[O][Pt]2([NH][C@@H]3CCCC[C@H]3[NH]2)[O]C1=O [oxaliplatin],IC50,[2],700 nM
same,IC50,[3],300 nM
C[NH+](C)[Pt-2]([I])([I])[NH+](C)C [trans-[PtI2(L1)2]],factor by which activity of cisplatin is exceeded,[4],~6
